# In patent US5622948A, “Pyrrole pyridazine and pyridazinone anti-inflammatory agents” (Syntex (U.S.A.) Inc., priority 1994, dated 1997):
# Where “and” joins values, the source holds several entries; their conditions need not be identical. Identical values can stand only once. Entries after “also recorded” stand apart in the source; their conditions may differ.
# Experiments:
# COX II = molecular target: T1, COX II (Homo sapiens, UniProt P35354); assay: radiometric assay, COX II inhibition (human recombinant, baculovirus expressed, partially purified); format: biochemical; set-up: A 1.8 Kb DNA fragment containing the coding region of human COX II was generated by PCR; made in house; host or cells: Sf9 insect cells, baculovirus
# T1 sequence (P35354 18-604): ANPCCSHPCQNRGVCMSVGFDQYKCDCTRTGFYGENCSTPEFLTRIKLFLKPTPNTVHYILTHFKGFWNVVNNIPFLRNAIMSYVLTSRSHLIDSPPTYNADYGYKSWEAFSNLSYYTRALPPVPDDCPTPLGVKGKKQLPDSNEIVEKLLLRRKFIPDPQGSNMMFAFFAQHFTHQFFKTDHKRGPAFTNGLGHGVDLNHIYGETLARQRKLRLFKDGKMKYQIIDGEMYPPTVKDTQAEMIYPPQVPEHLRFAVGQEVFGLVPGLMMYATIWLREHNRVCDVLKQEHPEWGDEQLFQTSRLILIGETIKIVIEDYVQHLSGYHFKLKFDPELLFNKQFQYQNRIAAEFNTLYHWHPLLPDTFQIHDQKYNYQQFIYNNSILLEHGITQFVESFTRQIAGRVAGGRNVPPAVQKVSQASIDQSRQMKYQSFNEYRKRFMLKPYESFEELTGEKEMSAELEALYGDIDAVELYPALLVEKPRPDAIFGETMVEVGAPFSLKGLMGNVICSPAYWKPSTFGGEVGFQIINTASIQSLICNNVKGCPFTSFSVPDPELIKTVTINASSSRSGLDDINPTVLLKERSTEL
# Outline: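 Partially purified baculovirus-expressed human enzyme preincubated with compound, 2 mM phenol (5 min) then 1 μM hematin (5 min). Reaction in Tris-HCl pH 7.9 with 20 μM 1-[14C]arachidonate for 45 s at room temperature, acid-stopped; oxygenated products isolated on Sep-Pak and counted by scintillation.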
# [1] = system: adjuvant-induced arthritis pain; assay: adjuvant-induced arthritis pain model in the rat; format: in vivo; conditions: preliminary test at 0.1, 1.0, 10 and 30 mg/kg, read-out: doses at which significant and prolonged analgesia is obtained
# Method: Compound (16) was also evaluated using an adjuvant-induced arthritis pain model in the rat, in which pain is assessed by eliciting a vocal response upon squeezing or flexing an inflamed ankle joint.
# [2] = system: adjuvant-induced arthritis; assay: adjuvant-induced arthritis in the rat; format: in vivo
compound,measurement,setting,value
"Cc1cc(Cc2ccc(=O)[nH]n2)n(C)c1C(=O)c1ccc(Cl)cc1 [Compound 16, 6-[1,4-dimethyl-5-(4chloro-benzoyl)-1H-pyrrol-2-ylmethyl]-2H-pyridazin-3-one]",type of inhibition of COX II,COX II,"potent, time-dependent, reversible inhibition"
same,IC50,"COX II; 10 min incubation with compound, 45 sec incubation with 20 μM AA, separation of radioactive products, read-out: COX II IC50",580 to 900 nM and 580 nM and 900 nM and 640 nM
same,selectivity for COX II,COX II; COX II over COX I,significantly more selective for COX II than currently available NSAIDs; also recorded: highly selective for COX II
same,minimal effective dose,[1],≥ 10 mg/kg
same,ED40,"[2]; Rattus norvegicus, po, 408 h, based on the three assays",3.2 ± 2.6 mg/kg
same,inhibition of adjuvant-induced arthritis,"[2]; first test, 2 mg/kg/day, oral bid 17 days",31%
same,inhibition of adjuvant-induced arthritis,"[2]; first test, 5 mg/kg/day, oral bid 17 days",66%
same,inhibition of adjuvant-induced arthritis,"[2]; second test, 2 mg/kg/day",43%
same,inhibition of adjuvant-induced arthritis,"[2]; second test, 5 mg/kg/day",48%
same,inhibition of adjuvant-induced arthritis,"[2]; second test, 10 mg/kg/day",52%
same,maximum inhibition of adjuvant-induced arthritis,"[2]; third test, 100 mg/kg",80%
